This is an account of results in patent US20100166848A1, “LIPOSOMAL FORMULATIONS FOR TREATING CANCER” (priority 2007, published 2010).

One assay has as its system SW620 cells. Kind of assay: 5-FU tumoral metabolism study with tritiated 5-FU. The following applies: SW620, 1 μM tritiated 5-FU, 3-6 h observation period. It counts as cell-based, human. How it is done:
(§1) All experiments were carried out in the 5-FU-resistant, human colon carcinoma cell line SW620 (a.k.a CCL227) which overexpresses TS. Cells were maintained in RPMI supplemented with 10% fetal calf serum, […] and 1% kanamycin in a humidified CO2 incubator at 37° C. All experiments were performed in exponentially growing cells.
Exponentially growing cells were exposed to 1 μM of tritiated 5-FU alone, combined with free d-Ino or as a liposomal preparation [5-FU+d-Ino]-L. After 3, 4 and 6 h exposure, cells were harvested, lysed into 70% methanol and cytosols were isolated by centrifugation (15000 rpm, 30 min) and stored at −80° C. until analysis. Separation of 5-FU and its main metabolites was achieved using a HP1090 HPLC system (Agilent, France) coupled to a Flo-One radioactive detector (Packard, France) and equipped with an RP18 column (Agilent, France), followed by elution with a K2HPO4-TBAN:Methanol gradient as described previously (Ciccolini et al, 2000b).

The subject of another assay is SW620 tumor. Kind of assay: In vivo efficacy, SW620 mouse xenograft model.
The test system of the next assay is colorectal cancer. The following applies: monotherapy; cited from earlier work.
Assay [1] has as its system SW620 human colon carcinoma cell line. As to the kind of experiment: Antiproliferative MTT assay, 24 h exposure plus 48 h drug-free. It counts as cell-based. The following applies: SW-620, SW620, 24 h exposure + 48 h drug-free medium, n=3, read-out: IC50 (5-FU concentration inhibiting 50% of cell growth). The protocol: as §1
Cells were seeded at a density of 8×10^4 cells/well in 96-well plates. […] Next, drug was removed and the cells were allowed to grow in fresh medium for an additional 48 h. After 72 h of discontinuous exposure, cell viability was evaluated using the classic colorimetric MTT assay (Alley et al, 1988). The IC50 was defined as the 5-FU concentration inhibiting 50% of cell growth.

In assay [2] the test system is 5-FU-resistant SW620 human colorectal cell line. Kind of assay: MTT testing of triple liposomal formulation, 72 continuous exposure. The following applies: SW-620. It counts as cell-based. From the text: Cell sensitivity was estimated by calculating the respective IC50 of the different regimen (MTT testing, 72 continuous exposure).

Protocol for SW620 tumor: Four-week old, female Swiss, nude mice (n=5 per group, Charles River, Lyon, France) were subcutaneously inoculated with 1×10^6 SW620 cells on the right flank. […] Drugs were administered intraperitoneously on a 3×/week basis for three consecutive weeks (e.g., D1/D2/D3, D8/D9/D10 and D16/D17/D18). Tumor size was measured three times a week in three dimensions using Vernier calipers, and tumor weight (mg) was calculated using the following standard formula: mass=pi/6XlengthXwidthXheight (Waterhouse et al, 2005). Preliminary experiments performed with empty liposomes were conducted to confirm the absence of any in vivo antiproliferative activity. Animal weight was monitored as a marker of toxicity. Animals were euthanized whenever a 25% loss of initial weight was observed, or when tumors reached 2500 mg.

For `O=c1[nH]cc(F)c(=O)[nH]1` [5-FU, 5-fluorouracil], in the assay on SW620 cells, the “anti-TS FdUMP synthesis” value is given as 83 dpm/mg protein. In addition, the “tumor size reduction at the conclusion of the study” value with SW620 tumor (5-FU 50 mg/kg, d-Ino 120 mg/kg IP, 3x/week for three weeks) worked out at 28%. The “effect on tumor growth, in words” value in the assay on SW620 tumor (as compared with untreated animals) is given as “failed to reduce tumor growth”. Besides, the survival time in the assay on SW620 tumor (controls 16 days) was found to be 20 days. Also, the “increase in survival time compared to controls” value in the assay with SW620 tumor (mouse, in vivo) came out at 25%. Also, the response rate in the assay with colorectal cancer was 20%. Moreover, the IC50 in assay [1] stood at 77 ± 6 µM; in assay [2], 62 µM.
